In patent US20260125375A1 (Pfizer Inc., priority 2022, published 2026):
Read-outs that look alike come from different tables or passages of the source.

Legend:
C-CBL = target: T1, C-CBL (Homo sapiens, UniProt P22681); test: Jurkat HiBit-IL2 assay (CBL-B KO), reporter cell line expressing C-CBL only; type: cell-based; conditions: geometric mean, read-out: CBL-B KO EC50 (nM) GMean
T1 construct: endogenous in cells; host or cells: Jurkat HiBit-IL2 reporter cells, CBL-B knocked out by CRISPR
Excerpt: (§1) Jurkat HiBit-IL2 Assay (WT, c-CBL KO, CBL-B KO)
(§2) The purpose of the Jurkat HiBit-IL2 assay is to evaluate the effect of the inhibition of CBL-B and/or C-CBL on TCR/CD28 stimulated interleukin-2 (IL-2) secretion.
(§3) The expression of IL-2 can then be accurately measured by HiBit luciferase assay. Further, C-CBL or CBL-B was knocked out by CRISPR respectively in this Jurkat HiBit-IL2 reporter cell line to create reporter cell line expressing CBL-B only (c-CBL knockout (KO)) or C-CBL only (CBL-B KO).
(§4) All three reporter cell lines were maintained in RPMI-1640 media with GlutaMax, 10% fetal bovine serum, 100 units/ml of penicillin, and 100 μg/ml of streptomycin at 37° C., 5% CO2, at a cell density 1×10e5-2×10e6 viable cells/ml. Serial diluted compounds in DMSO (40 nl/well, final 0.1% DMSO in assay cell culture) were plated into 384-well white-wall clear-bottom cell culture plates. Reporter cells were pelleted and resuspended in fresh cell culture medium to 0.66×10e6 cells/ml and added to the assay plate at 30 μl/well (20,000 cells/well). The cells were incubated with compounds for 1 hour at 37° C., 5% CO2. 10 μl/well of anti-CD3 antibody (OKT3) and anti-CD28 antibody (CD28.2) prediluted in fresh cell culture medium at 4× final concentration (anti-CD3 mAb: 4 μg/ml; anti-CD28 mAb: 8 μg/ml) was added into the cells (final concentration of anti-CD3 mAb: 1 μg/ml; anti-CD28 mAb: 2 μg/ml). The cells were cultured for another 4 hours at 37° C., 5% CO2. The Nano-Glo HiBiT Lytic Reagent was prepared following the manufacturer's protocol. 20 ul/well of the Nano-Glo HiBiT Lytic Reagent was added into the reporter cell culture assay plate and incubated at room temperature (20-25° C.) for 15 minutes. The plates were read on a Perkin-Elmer EnVision plate reader with 0.1 second integration time. Data were normalized to “Fold of Effect” with the anti-CD3 and anti-CD28 antibodies only samples as the baseline activation level and EC50 was calculated. The EC50 (nM) values reported are the geometric means (GMean) of the number of tests conducted.

C-CBL (residues 46-435) = target: T2, C-CBL (residues 46-435) (Homo sapiens, UniProt P22681); test: Ligand Displacement Assay (LDA), HTRF competitive binding against BODIPY-labeled fluorescent tracer, C-CBL; conditions: geometric mean of the number of tests, read-out: C-CBL Ki (nM) GMean
T2 construct: Purified CBL-B (residues 36-427) and C-CBL (residues 46-435) proteins from baculovirus-infected insect cells; made in house; host or cells: baculovirus-infected insect cells
T2 sequence (P22681 46-435): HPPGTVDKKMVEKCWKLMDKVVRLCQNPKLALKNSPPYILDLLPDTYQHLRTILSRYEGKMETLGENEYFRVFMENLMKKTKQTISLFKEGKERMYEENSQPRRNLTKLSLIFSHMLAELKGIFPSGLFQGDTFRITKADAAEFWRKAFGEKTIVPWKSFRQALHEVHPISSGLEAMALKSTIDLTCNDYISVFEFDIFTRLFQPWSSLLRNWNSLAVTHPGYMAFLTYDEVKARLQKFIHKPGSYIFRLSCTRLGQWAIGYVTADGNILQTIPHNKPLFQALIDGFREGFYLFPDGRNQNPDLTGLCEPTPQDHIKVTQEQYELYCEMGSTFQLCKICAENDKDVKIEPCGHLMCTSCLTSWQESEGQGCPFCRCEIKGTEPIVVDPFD
In short: (§5)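 Terbium-streptavidin donor on BirA-biotinylated, AviTagged protein from baculovirus-infected insect cells; BODIPY tracer as acceptor. Compound titrations were three-fold and duplicated, […] with 2% DMSO final.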

CBL-B (residues 36-427) = target: T3, CBL-B (residues 36-427) (Homo sapiens, UniProt Q13191); test: Ligand Displacement Assay (LDA), HTRF competitive binding against BODIPY-labeled fluorescent tracer, CBL-B; conditions: geometric mean of the number of tests, read-out: CBL-B Ki (nM) GMean
T3 construct: Purified CBL-B (residues 36-427) and C-CBL (residues 46-435) proteins from baculovirus-infected insect cells; made in house; host or cells: baculovirus-infected insect cells
In short: as §5

CBL-B = target: T4, CBL-B (Homo sapiens, UniProt Q13191); test: Jurkat HiBit-IL2 assay (c-CBL KO), reporter cell line expressing CBL-B only; type: cell-based; conditions: geometric mean, read-out: C-CBL KO EC50 (nM) GMean
T4 construct: endogenous in cells; host or cells: Jurkat HiBit-IL2 reporter cells, C-CBL knocked out by CRISPR
Excerpt: as §1, §2, §3, §4

[1] = CBL-B KO (C-CBL only), anti-CD3/anti-CD28 stimulation 4 hours, Table 16a
[2] = CBL-B KO (expressing C-CBL only), Table 16b (further repetition)
[3] = C-CBL KO (expressing CBL-B only), Table 16b (further repetition)
[4] = c-CBL KO (CBL-B only), anti-CD3/anti-CD28 stimulation 4 hours, Table 16a

SMILES | EC50 (C-CBL; [1]) [nM] | EC50 (C-CBL; [2]) [nM] | Ki (C-CBL (residues 46-435)) [nM] | Ki (CBL-B (residues 36-427)) [nM] | EC50 (CBL-B; [3]) [nM] | EC50 (CBL-B; [4]) [nM]
C[C@@H](O)CN[C@H](C)c1nc(C(F)(F)F)cc2c(-c3cccc([C@H](c4nncn4C)C4CCC4)c3)n[nH]c12 (single isomer, unassigned) [Example D26] | 122 | 180 | 14 | 1.8 | 30 | 9
C[C@@H](c1nc(C(F)(F)F)cc2c(-c3cccc([C@H](c4nncn4C)C4CCC4)c3)n[nH]c12)N1CC[C@H](O)C1 (single isomer, unassigned) [Example D71] | – | 434 | 13 | 1.3 | 77 | –
CC(NCCO)c1nc(C(F)(F)F)cc2c(-c3cccc([C@H](c4nncn4C)C4CCCCC4)c3)n[nH]c12 (single isomer, unassigned) [Example C39] | 496 | 615 | 73.2 | 7.4 | 108 | 35
C[C@H](N[C@@H](C)CO)c1nc(C(F)(F)F)cc2c(-c3cccc([C@H](c4nncn4C)C4CCC4)c3)n[nH]c12 (single isomer, unassigned) [Example D27] | 194 | 209 | 9.1 | 1 | 24 | 11
CC(NC(=O)CO)c1nc(C(F)(F)F)cc2c(-c3cccc([C@H](c4nncn4C)C4CCC4)c3)n[nH]c12 (single isomer, unassigned) [Example I2] | 2420 | – | 64.5 | 7.8 | – | 313
C[C@H](CO)N[C@@H](C)c1nc(C(F)(F)F)cc2c(-c3cccc([C@H](c4nncn4C)C4CCC4)c3)n[nH]c12 (single isomer, unassigned) [Example C43] | 912 | 554 | 87.7 | 6.7 | 61 | 51
C[C@@H](N[C@@H]1COC[C@@H]1O)c1nc(C(F)(F)F)cc2c(-c3cccc([C@H](c4nncn4C)C4CCC4)c3)n[nH]c12 (single isomer, unassigned) [Example D56] | – | 365 | 62.3 | 6.2 | 84 | –
C[C@H](N[C@H]1CC[C@@H]1O)c1nc(C(F)(F)F)cc2c(-c3cccc([C@H](c4nncn4C)C4CCC4)c3)n[nH]c12 (single isomer, unassigned) [Example D21] | 420 | 1150 | 68.1 | 5.4 | 107 | 39
CC(O)CNC(C)c1nc(C2CC2)cc2c(-c3cccc(C(c4nncn4C)C4CCC4)c3)n[nH]c12 (single isomer, unassigned) [Example H2] | 232 | 165 | 18.3 | 1.4 | 41 | 17
CC(NCCO)c1nc(C(F)(F)F)cc2c(-c3cccc([C@H](c4nncn4C)C4CCC4)c3)n[nH]c12 (single isomer, unassigned) [Example C41] | 327 | 877 | 30.1 | 3.2 | 154 | 42
CC(NC(=O)[C@H](C)O)c1nc(C(F)(F)F)cc2c(-c3cccc([C@H](c4nncn4C)C4CCC4)c3)n[nH]c12 (single isomer, unassigned) [Example I4] | 852 | 491 | 24.3 | 3.4 | 108 | 48
C[C@H](N[C@@H]1CC[C@H]1O)c1nc(C(F)(F)F)cc2c(-c3cccc([C@H](c4nncn4C)C4CCC4)c3)n[nH]c12 (single isomer, unassigned) [Example D23] | 63 | 124 | 9.9 | 1.8 | 21 | 6
C[C@@H](c1nc(C(F)(F)F)cc2c(-c3cccc([C@H](c4nncn4C)C4CCC4)c3)n[nH]c12)N1CC[C@H](O)C1 (single isomer, unassigned) [Example D70] | – | 618 | 48.4 | 7.1 | 163 | –
C[C@H](c1nc(C(F)(F)F)cc2c(-c3cccc([C@H](c4nncn4C)C4CCC4)c3)n[nH]c12)N1CC[C@@H](O)C1 (single isomer, unassigned) [Example D69] | – | 490 | 54.3 | 9.3 | 154 | –
CC(NC1CCC1)c1nc(C2CC2)cc2c(-c3cccc(C4(Cc5nncn5C)COC4)c3)n[nH]c12 (single isomer, unassigned) [Example H4, N-{(1ξ)-1-[5-cyclopropyl-3-(3-{3-[(4-methyl-4H-1,2,4-triazol-3-yl)methyl]oxetan-3-yl}phenyl)-1H-pyrazolo[3,4-c]pyridin-7-yl]ethyl}cyclobutanamine] | 43 | 28 | 4.5 | 1 | 11 | 5
CC[C@H](c1cccc(-c2n[nH]c3c([C@@H](C)NC[C@H](C)O)nc(C(F)(F)F)cc23)c1)c1nncn1C (single isomer, unassigned) [Example D77] | – | 93 | 4.5 | 0.8 | 33 | –
CCC(CC)(CO)N[C@@H](C)c1nc(C(F)(F)F)cc2c(-c3cccc([C@H](c4nncn4C)C4CCC4)c3)n[nH]c12 (single isomer, unassigned) [Example D74] | – | 3400 | 366 | 31.5 | 639 | –
C[C@H](O)C(=O)N[C@@H](C)c1nc(C(F)(F)F)cc2c(-c3cccc([C@H](c4nncn4C)C4CCC4)c3)n[nH]c12 (single isomer, unassigned) [Example I3] | 17 | 15 | 0.7 | 0.8 | 6 | 3
CC(N[C@H]1CCC[C@@H]1O)c1nc(C(F)(F)F)cc2c(-c3cccc([C@H](c4nncn4C)C4CCCCC4)c3)n[nH]c12 (single isomer, unassigned) [Example C101] | – | 909 | 21 | 2.5 | 58 | –
CC(NCCO)c1nc(C(F)(F)F)cc2c(-c3cccc([C@H](c4nncn4C)C4CCCCC4)c3)n[nH]c12 (single isomer, unassigned) [Example C40] | 1360 | 1560 | 95.9 | 7.1 | 214 | 47
C[C@H](NC[C@@H](C)O)c1nc(C(F)(F)F)cc2c(-c3cccc([C@H](c4nncn4C)C4CCC4)c3)n[nH]c12 (single isomer, unassigned) [Example D25] | 174 | 359 | 51.1 | 6.4 | 101 | 20
